Broadly, the EC50 is the midpoint of the concentration-response curve. In general, EC90 refers to the concentration needed for an effect of 90%.

EC50 and EC90 data for twelve compounds are collected here from patent US20240252527A9, “NUCLEOSIDE DRUGS FOR THE TREATMENT OR PREVENTION OF CORONAVIRUS INFECTION AND THEIR USES” (Miracure Biotechnology Limited, priority 2022, published 2024).

Read-outs that look alike come from different tables or passages of the source.

Assay [1] has as its system 229E. Description: 229E MRC5 CPE assay (cytopathic experiment). Format: cell-based, coronavirus 229E (HCoV-229E). Here is the method:
(§1) Cells were seeded into microplates at a certain density and cultured overnight in a incubator at 5% CO2, 37° C. The next day, double-diluted compound and virus were added. It was set up a cell control group (cells without treatment with a compound or virus infection), a virus control group (cells infected with virus, no compound treatment) and a culture medium control group (medium only). Cells were cultured in the incubator for 3 days (229E) or 7 days (OC43). Cytotoxicity experiments were performed under the same conditions as antiviral experiments, but without virus infection. Cell viability was tested using a cell viability assay kit Cell Titer Glo (Promega).
(§2) The antiviral activity and cytotoxicity of the compounds were expressed by the inhibition rate (%) and cell viability (%) of the compounds against virus-induced cytopathic effects at different concentrations, respectively. Nonlinear fitting analysis on the inhibition rate and cell viability of the compounds were carried out with the GraphPad Prism, and the half effective concentration (EC50), the […] effective concentration (EC90), the half cytotoxic concentration (CC50) and the 90% cytotoxic concentration of the compound […] values were calculated.
On the technique in general: Protection from cytopathic effect is a common read-out in antiviral testing.

The test system of assay [2] is OC43. Description: OC43 Huh7 CPE assay (cytopathic experiment). Format: cell-based, coronavirus OC43 (HCoV-OC43). To be noted: for EC50: read-out: OC43 Huh7 CPE assay (μM) EC50; for EC90: read-out: OC43 Huh7 CPE assay (μM) EC90. The protocol:
as §1, §2

The mark [3] stands for this setting: Human coronavirus 229E, MRC5, 72 h; read-out: 229E MRC5 CPE assay (μM) EC50.
[4] abbreviates: Human coronavirus 229E, MRC5, 72 h; read-out: 229E MRC5 CPE assay (μM) EC90.
[5] abbreviates: Betacoronavirus 1, Huh-7, 168 h, Huh7 cells, OC43 virus, 7 days, Cell Titer Glo.
Where [6] appears, read: Human coronavirus 229E, MRC5, 72 h, read-out: 229E MRC5 CPE assay (μM) EC50.
Where [7] appears, read: Human coronavirus 229E, MRC5, 72 h, read-out: 229E MRC5 CPE assay (μM) EC90.
[8] abbreviates: Betacoronavirus 1, OC43, Huh-7, 168 h.

Regarding `CCC(CC)COC(=O)[C@H](C)NP(=O)(OC[C@H]1O[C@@](C#N)(c2ccc3c(N)ncnn23)[C@H](O)[C@@H]1O)Oc1ccc(Nc2ccnc3cc(Cl)ccc23)cc1CN(CC)CC` (some centres unmarked) [Compound 016], the EC50 in assay [1] (setting [3]) and in assay [2] (setting [5]) was greater than 0.5 µM in each case. In addition, the EC90 in assay [1] (setting [4]) and in assay [2] (setting [5]) was greater than 0.5 µM in each case.

`CCC(CC)COC(=O)[C@H](C)NP(=O)(OC[C@H]1O[C@@](C#N)(c2ccc3c(N)ncnn23)[C@H](O)[C@@H]1O)ONC(=N)c1ccccc1` (some centres unmarked) [Compound 028]: the EC50 in assay [1] (setting [6]) and in assay [2] (setting [8]) was greater than 0.5 µM each time. Moreover, the EC90 in assay [1] (setting [7]) and in assay [2] (setting [8]) was greater than 0.5 µM in each case.

As for `CCCC(CCC)C(=O)OCOP(=O)(NC(C)(C)C(=O)OC(C)C)OC[C@H]1O[C@@](C#N)(c2ccc3c(N)ncnn23)[C@H](O)[C@@H]1O` (some centres unmarked) [Compound 034], the 50% effective concentration (EC50) in assay [1] (setting [6]) and in assay [2] (setting [8]) was 0.1 to 0.5 µM throughout. The 90% effect concentration (EC90) in assay [1] (setting [7]) and in assay [2] (setting [8]) was greater than 0.5 µM in each case.

Take `CCCC(CCC)C(=O)OCO[P@](=O)(N[C@H](C)C(=O)OC(C)C)OC[C@H]1O[C@@](C#N)(c2ccc3c(N)ncnn23)[C@H](O)[C@@H]1O` [Compound 036]: the concentration giving a half-maximal response (EC50) in assay [1] (setting [6]) and in assay [2] (setting [8]) was 0.1 to 0.5 µM in each case. For the same compound, the EC90 was 0.1 to 0.5 µM in assay [1] (setting [7]) and greater than 0.5 µM in assay [2] (setting [8]).

For `CCCC(CCC)C(=O)O[C@@H]1[C@@H]2OP(=O)(O)OC[C@H]2O[C@@]1(C#N)c1ccc2c(N)ncnn12` [Compound 057], the concentration giving a half-maximal response (EC50) in assay [1] (setting [6]) was greater than 0.5 µM; in assay [2] (setting [8]), 0.1 to 0.5 µM. Besides, the EC90 in assay [1] (setting [7]) and in assay [2] (setting [8]) was greater than 0.5 µM throughout.

Regarding `CCC(CC)COC(=O)[C@H](C)N[P@](=O)(OC[C@H]1O[C@@](C#N)(c2ccc3c(N)ncnn23)[C@H](O)[C@@H]1O)Oc1ccc(Nc2ccnc3cc(Cl)ccc23)cc1CN(CC)CC` [Compound 062], the EC50 in assay [1] (setting [3]) and in assay [2] (setting [5]) was greater than 0.5 µM throughout. Also, the EC90 in assay [1] (setting [4]) and in assay [2] (setting [5]) was greater than 0.5 µM each time.

As for `CCC(CC)COC(=O)[C@H](C)N[P@@](=O)(OC[C@H]1O[C@@](C#N)(c2ccc3c(N)ncnn23)[C@H](O)[C@@H]1O)Oc1ccc(Nc2ccnc3cc(Cl)ccc23)cc1CN(CC)CC` [Compound 063], the EC50 in assay [1] (setting [3]) and in assay [2] (setting [5]) was greater than 0.5 µM in each case. In addition, the EC90 in assay [1] (setting [4]) and in assay [2] (setting [5]) was greater than 0.5 µM throughout.

With `CCC(CC)COC(=O)[C@H](C)N[P@@](=O)(OCCN(CC)CCCC(C)Nc1ccnc2cc(Cl)ccc12)OC[C@H]1O[C@@](C#N)(c2ccc3c(N)ncnn23)[C@H](O)[C@@H]1O` (some centres unmarked) [Compound 068], the EC50 in assay [1] (setting [6]) and in assay [2] (setting [8]) was greater than 0.5 µM each time. Moreover, the concentration for an effect of 90% (EC90) in assay [1] (setting [7]) and in assay [2] (setting [8]) was greater than 0.5 µM throughout.

With `CCC(CC)COC(=O)[C@H](C)N[P@](=O)(OCCN(CC)CCCC(C)Nc1ccnc2cc(Cl)ccc12)OC[C@H]1O[C@@](C#N)(c2ccc3c(N)ncnn23)[C@H](O)[C@@H]1O` (some centres unmarked) [Compound 069], the EC50 in assay [1] (setting [6]) and in assay [2] (setting [8]) was greater than 0.5 µM in each case. The concentration for an effect of 90% (EC90) in assay [1] (setting [7]) and in assay [2] (setting [8]) was greater than 0.5 µM each time.

For `CCCC(CCC)C(=O)OCO[P@](=O)(N[C@@H](C)C(=O)OCC(CC)CC)OC[C@H]1O[C@@](C#N)(c2ccc3c(N)ncnn23)[C@H](O)[C@@H]1O` [Compound 070], the EC50 in assay [1] (setting [6]) and in assay [2] (setting [8]) was 0.1 to 0.5 µM each time. In addition, the results for the EC90 in assay [1] (setting [7]) and in assay [2] (setting [8]) were 0.1 to 0.5 µM and greater than 0.5 µM, respectively.

Take `N#C[C@@]1(c2ccc3c(N)ncnn23)O[C@H](COP(=O)(OCOC(=O)C2CCCC2)OCOC(=O)C2CCCC2)[C@@H](O)[C@H]1O` [Compound 265]: the concentration for a half-maximal effect (EC50) in assay [1] (setting [6]) was greater than 0.5 µM. Also, the concentration for an effect of 90% (EC90) in assay [1] (setting [7]) was greater than 0.5 µM.

In the case of `N#C[C@@]1(c2ccc3c(N)ncnn23)O[C@H](COP(=O)(OCOC(=O)OC2CCCC2)OCOC(=O)OC2CCCC2)[C@@H](O)[C@H]1O` [Compound 277], in assay [1] (setting [6]), the EC50 was less than 0.1 µM. The concentration for an effect of 90% (EC90) in assay [1] (setting [7]) lay within 0.1 to 0.5 µM.
